Results from ChEMBL document CHEMBL1201862, “PubChem BioAssay data set” (2004).
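96-well plates; 48 h exposure; 5 concentrations. Endpoints by linear interpolation between flanking doses. Not reached: highest tested concentration assigned. The concentration for 50% growth inhibition is given as GI50.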 The source made the active and inactive calls. Rule as the data show it: active = GI50 up to about 1.1 µM and inactive = higher.

Tests used:
Assay in all cases: growth of human tumour cells (NCI), 48 h
[1] = system: NCI-H226
[2] = system: OVCAR-8
[3] = system: SK-MEL-5
[4] = system: SF-268
[5] = system: ACHN
[6] = system: UACC-257
[7] = system: HOP-92
[8] = system: HCC 2998
[9] = system: SW-620
[10] = system: HOP-62
[11] = system: CCRF-CEM
[12] = system: SF-539
[13] = system: TK-10
[14] = system: NCI-H522
[15] = system: IGROV-1
[16] = system: SK-OV-3
[17] = system: 786-0
[18] = system: OVCAR-4
[19] = system: RXF 393
[20] = system: T47D
[21] = system: MOLT-4
[22] = system: MCF7
[23] = system: HCT-15
[24] = system: RPMI-8226
[25] = system: SN12C
[26] = system: COLO 205
[27] = system: HL-60
[28] = system: CAKI-1
[29] = system: U-251
[30] = system: EKVX
[31] = system: NCI-H23
[32] = system: SR
[33] = system: Malme-3M
[34] = system: UO-31
[35] = system: SK-MEL-2
[36] = system: SF-295
[37] = system: HT-29
[38] = system: SK-MEL-28
[39] = system: MDA-MB-435
[40] = system: A498
[41] = system: UACC-62
[42] = system: Hs-578T
[43] = system: DU-145
[44] = system: OVCAR-5
[45] = system: PC-3
[46] = system: LOX IMVI
[47] = system: K562
[48] = system: OVCAR-3
[49] = system: BT-549
[50] = system: KM12
[51] = system: HCT-116
[52] = system: M14
[53] = system: NCI-H460
[54] = system: A549
[55] = system: SNB-75
[56] = system: SNB-19
[57] = system: MDA-MB-231
[58] = system: NCI/ADR-RES

Compound: Nc1cccc(/C=C/CN2CCN(CCOC(c3ccccc3)c3ccccc3)CC2)c1
- GI50 [1]: 21.2 µM (inactive)
- GI50 [2]: 16 µM (inactive)
- GI50 [3]: 12.6 µM (inactive)
- GI50 [4]: 17.7 µM (inactive)
- GI50 [5]: 17.9 µM (inactive)
- GI50 [6]: 15.9 µM (inactive)
- GI50 [7]: 12.6 µM (inactive)
- GI50 [8]: 3.52 µM (inactive)
- GI50 [9]: 15.9 µM (inactive)
- GI50 [10]: 13.8 µM (inactive)
- GI50 [11]: 9.98 µM (inactive)
- GI50 [12]: 16.7 µM (inactive)
- GI50 [13]: 15.8 µM (inactive)
- GI50 [14]: 13.9 µM (inactive)
- GI50 [15]: 16.3 µM (inactive)
- GI50 [16]: 14.1 µM (inactive)
- GI50 [17]: 14.8 µM (inactive)
- GI50 [18]: 13.2 µM (inactive)
- GI50 [19]: 12.3 µM (inactive)
- GI50 [20]: 8 µM (inactive)
- GI50 [21]: 3.54 µM (inactive)
- GI50 [22]: 13.8 µM (inactive)
- GI50 [23]: 12.8 µM
- GI50 [24]: 3 µM (inactive)
- GI50 [25]: 16.8 µM (inactive)
- GI50 [26]: 6.03 µM (inactive)
- GI50 [27]: 5.05 µM (inactive)
- GI50 [28]: 19.8 µM (inactive)
- GI50 [29]: 14.6 µM (inactive)
- GI50 [30]: 16.4 µM (inactive)
- GI50 [31]: 16.1 µM (inactive)
- GI50 [32]: 4.61 µM (inactive)
- GI50 [33]: 18.2 µM (inactive)
- GI50 [34]: 13.6 µM (inactive)
- GI50 [35]: 17.7 µM (inactive)
- GI50 [36]: 17.4 µM (inactive)
- GI50 [37]: 3.15 µM (inactive)
- GI50 [38]: 14 µM (inactive)
- GI50 [39]: 14.3 µM (inactive)
- GI50 [40]: 18 µM (inactive)
- GI50 [41]: 17.4 µM (inactive)
- GI50 [42]: 21.8 µM (inactive)
- GI50 [43]: 13.6 µM (inactive)
- GI50 [44]: 16 µM (inactive)
- GI50 [45]: 14.8 µM (inactive)
- GI50 [46]: 15.6 µM (inactive)
- GI50 [47]: 3.11 µM (inactive)
- GI50 [48]: 15.6 µM (inactive)
- GI50 [49]: 16.1 µM (inactive)
- GI50 [50]: 11.2 µM (inactive)
- GI50 [51]: 12.5 µM (inactive)
- GI50 [52]: 12.8 µM (inactive)
- GI50 [53]: 13.6 µM (inactive)
- GI50 [54]: 15.1 µM (inactive)
- GI50 [55]: 10.5 µM (inactive)
- GI50 [56]: 15.7 µM (inactive)
- GI50 [57]: 15 µM (inactive)
- GI50 [58]: 14.3 µM (inactive)
